Measurements published in patent EP2992880A1, “Use of heme oxygenase 1 inducers and cannabinoid 2 receptor or delta-opioid receptor agonists in inflammatory pain” (Fundació Institut de Recerca de l'Hospital de la Santa Creu …, priority 2014, dated 2016).

Key:
Format in all cases: in vivo
HO-1 = experiment: Western blot of HO-1 protein in dorsal root ganglia of CFA-injected mice; details: CoPP treatment of CFA-injected mice; P < 0.001 (Fig. 6)
Description: (§1) Animals were sacrificed at 0 days (naive) and after CFA-injection by cervical dislocation. Tissues from the ipsilateral section of the dorsal root ganglia (L3 to L5) were removed immediately after killing, frozen in liquid nitrogen, and stored at -80°C until assay. Samples from five animals were pooled into one experimental sample to obtain enough protein levels for performing Western blot analysis. The HO-1, DOR and CB2R protein levels were analyzed by Western blot. […]
(§2) The proteins were electrophoretically transferred onto PVDF membrane for 120 min, blocked with PBS + 5% nonfat dry milk, and subsequently incubated overnight at 4°C with polyclonal rabbit anti-HO-1 (1:300, Stressgen, Ann Arbor, MI), anti-DOR (1:2500, Chemicon-Millipore) or anti-CB2R (1:500, Abcam, Cambridge, United Kingdom). The proteins were detected by a horseradish peroxidase-conjugated anti-rabbit secondary antibody (GE Healthcare, Little Chalfont, Buckinghamshire, United Kingdom) and visualized with chemiluminescence reagents (ECL kit; GE Healthcare) and by exposure onto hyperfilm (GE Healthcare). The intensity of blots was quantified by densitometry. […]
(§3) Finally, in another set of experiments we evaluated the effects of CoPP on the expression of HO-1, DOR and CB2R in the ipsilateral site of the dorsal root ganglia from CFA-injected mice, by using Western blot assay. […]

DOR = experiment: Western blot of DOR protein in dorsal root ganglia of CFA-injected mice; details: CoPP treatment of CFA-injected mice; P < 0.001 (Fig. 7)
Description: as §1, §2, §3

CB2R = experiment: Western blot of CB2R protein in dorsal root ganglia of CFA-injected mice; details: CoPP treatment of CFA-injected mice (Fig. 8)
Description: as §1, §2, §3

cobalt (III) protoporphyrin IX chloride [CoPP]
dorsal root ganglia expression of HO-1 (HO-1): significantly increased
decreased protein levels of DOR in the dorsal root ganglia from CFA-injected mice (DOR): avoided
peripheral expression of CB2R in the dorsal root ganglia from CFA-injected mice (CB2R): remains unaltered
